Values of other authors in patent US9809589B2, “Crystal form of compound used as mineralocorticoid receptor antagonist and preparation method therefor” (KBP BIOSCIENCES CO., LTD., priority 2012, dated 2017).

Assays:
[1] = biological target: T1, mineralocorticoid receptor (Homo sapiens, UniProt P08235); details: as disclosed in WO2012022121; cited from earlier work
T1 sequence (P08235 1-984): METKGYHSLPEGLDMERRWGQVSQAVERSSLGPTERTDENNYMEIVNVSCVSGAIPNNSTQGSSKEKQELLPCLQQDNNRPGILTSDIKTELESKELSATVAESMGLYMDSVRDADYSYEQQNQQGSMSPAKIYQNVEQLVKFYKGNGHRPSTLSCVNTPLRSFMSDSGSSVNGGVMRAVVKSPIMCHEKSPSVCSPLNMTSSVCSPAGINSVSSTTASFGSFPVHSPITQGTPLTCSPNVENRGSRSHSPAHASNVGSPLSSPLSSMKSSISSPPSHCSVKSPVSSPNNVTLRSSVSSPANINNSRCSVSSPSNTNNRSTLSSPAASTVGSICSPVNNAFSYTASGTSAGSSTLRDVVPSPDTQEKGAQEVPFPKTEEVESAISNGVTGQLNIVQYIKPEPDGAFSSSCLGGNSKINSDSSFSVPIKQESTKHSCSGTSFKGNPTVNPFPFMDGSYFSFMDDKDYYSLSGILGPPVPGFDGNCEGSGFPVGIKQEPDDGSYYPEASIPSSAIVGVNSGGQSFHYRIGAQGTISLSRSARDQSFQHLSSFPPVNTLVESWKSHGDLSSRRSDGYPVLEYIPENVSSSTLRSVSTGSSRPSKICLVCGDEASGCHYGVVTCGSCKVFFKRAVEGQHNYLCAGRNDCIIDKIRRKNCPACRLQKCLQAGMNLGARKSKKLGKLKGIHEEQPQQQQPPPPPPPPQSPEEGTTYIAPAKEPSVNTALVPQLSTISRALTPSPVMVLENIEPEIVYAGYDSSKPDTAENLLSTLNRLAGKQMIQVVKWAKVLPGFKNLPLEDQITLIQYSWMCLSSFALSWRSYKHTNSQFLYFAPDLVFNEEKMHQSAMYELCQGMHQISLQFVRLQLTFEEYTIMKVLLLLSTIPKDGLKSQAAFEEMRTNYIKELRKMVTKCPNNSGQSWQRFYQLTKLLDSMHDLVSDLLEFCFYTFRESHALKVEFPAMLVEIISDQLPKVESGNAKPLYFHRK

glucocorticoid receptor = biological target: T2, glucocorticoid receptor (Homo sapiens, UniProt P04150); details: relative to mineralocorticoid receptor; WO2012022121; cited from earlier work
T2 sequence (P04150 1-777): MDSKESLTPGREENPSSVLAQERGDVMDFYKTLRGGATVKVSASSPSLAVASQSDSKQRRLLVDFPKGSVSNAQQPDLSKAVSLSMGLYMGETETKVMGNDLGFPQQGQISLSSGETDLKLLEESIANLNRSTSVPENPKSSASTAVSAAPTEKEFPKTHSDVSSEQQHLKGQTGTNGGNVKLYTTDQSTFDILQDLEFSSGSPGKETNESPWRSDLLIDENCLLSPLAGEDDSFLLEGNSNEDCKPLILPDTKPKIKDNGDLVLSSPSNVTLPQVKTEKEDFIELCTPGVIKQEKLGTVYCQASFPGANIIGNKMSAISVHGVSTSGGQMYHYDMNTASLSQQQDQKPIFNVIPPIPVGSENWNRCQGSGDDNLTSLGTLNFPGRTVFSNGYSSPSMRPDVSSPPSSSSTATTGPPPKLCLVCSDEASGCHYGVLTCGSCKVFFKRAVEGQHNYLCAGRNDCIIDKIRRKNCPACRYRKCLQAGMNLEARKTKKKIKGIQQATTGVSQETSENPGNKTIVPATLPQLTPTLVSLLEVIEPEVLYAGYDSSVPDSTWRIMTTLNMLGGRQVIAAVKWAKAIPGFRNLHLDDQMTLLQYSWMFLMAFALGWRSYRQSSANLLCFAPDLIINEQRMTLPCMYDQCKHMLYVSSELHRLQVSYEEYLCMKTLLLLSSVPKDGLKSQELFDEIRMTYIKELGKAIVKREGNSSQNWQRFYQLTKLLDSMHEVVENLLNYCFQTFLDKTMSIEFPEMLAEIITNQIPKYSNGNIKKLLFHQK

androgen receptor = biological target: T3, androgen receptor (Homo sapiens, UniProt P10275); details: relative to mineralocorticoid receptor; WO2012022121; cited from earlier work
T3 sequence (P10275 1-920): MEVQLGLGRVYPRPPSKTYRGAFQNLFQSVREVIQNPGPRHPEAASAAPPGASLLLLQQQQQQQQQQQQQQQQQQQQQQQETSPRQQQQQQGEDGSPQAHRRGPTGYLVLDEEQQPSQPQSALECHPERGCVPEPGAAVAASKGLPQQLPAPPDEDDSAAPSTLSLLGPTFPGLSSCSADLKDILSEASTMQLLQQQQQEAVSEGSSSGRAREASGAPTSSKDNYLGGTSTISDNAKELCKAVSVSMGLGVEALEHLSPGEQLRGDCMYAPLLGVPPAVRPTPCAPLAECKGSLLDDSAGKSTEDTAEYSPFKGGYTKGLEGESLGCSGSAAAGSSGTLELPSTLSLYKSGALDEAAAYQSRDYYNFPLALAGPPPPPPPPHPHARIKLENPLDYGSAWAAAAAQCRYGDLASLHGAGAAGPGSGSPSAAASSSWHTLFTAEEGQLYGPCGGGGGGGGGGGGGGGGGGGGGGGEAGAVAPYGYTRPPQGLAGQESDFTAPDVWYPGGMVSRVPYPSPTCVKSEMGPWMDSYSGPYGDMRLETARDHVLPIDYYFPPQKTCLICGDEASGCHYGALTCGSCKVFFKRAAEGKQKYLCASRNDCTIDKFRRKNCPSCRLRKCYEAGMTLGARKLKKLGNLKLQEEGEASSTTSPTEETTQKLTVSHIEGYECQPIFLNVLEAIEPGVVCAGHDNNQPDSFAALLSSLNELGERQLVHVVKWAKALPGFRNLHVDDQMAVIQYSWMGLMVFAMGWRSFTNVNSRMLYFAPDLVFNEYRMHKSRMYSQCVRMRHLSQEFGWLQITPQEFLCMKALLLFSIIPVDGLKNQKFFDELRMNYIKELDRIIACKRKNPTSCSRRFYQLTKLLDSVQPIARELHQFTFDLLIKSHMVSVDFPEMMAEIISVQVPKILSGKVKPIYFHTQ

Compound: N#Cc1ccc(N2N=C3c4ccc(C(=O)N5CCC(O)CC5)nc4CC[C@@H]3[C@@H]2C2CCCC2)cc1Cl [compound represented by Formula (1), 2-chloro-4-[(3S,3aR)-3-cyclopentyl-7-(4-hydroxypiperidin-1-carbonyl)-3,3a,4,5-tetrahydro-2H-pyrazolo[3,4-f]quinolin-2-yl]benzonitrile]
- Binding to the mineralocorticoid receptor [1]: selectively bind to the mineralocorticoid receptor
- Affinity to the glucocorticoid receptor (glucocorticoid receptor): lower affinity
- Affinity to the androgen receptor (androgen receptor): lower affinity
